Values quoted from earlier work in patent US20220117956A1, “LSD FOR THE TREATMENT OF ALZHEIMER'S DISEASE” (Eleusis Therapeutics US, Inc., priority 2015, published 2022).

Assays:
[1] = formulated for immediate release; depending on dosage, tolerance, body weight and age
[2] = immediate release LSD dosed at 1 μg/kg

## CCN(CC)C(=O)[C@@H]1C=C2c3cccc4[nH]cc(c34)C[C@H]2N(C)C1 [LSD, lysergic acid diethylamide]
[1]
  duration of LSD's effects: 6 to 12 h
[2]
  apparent plasma half-life: 5.1 h
  time of peak plasma concentration post-dose: 3 h
[2]; at 3 hours post-dose
  peak plasma concentration: 5 ng/mL
